Structures can show the parent of a compound that is named as a salt.
Biological target: T1, His6-AspH315–758 (human aspartate/asparagine-β-hydroxylase, AspH) (Homo sapiens, UniProt Q12797)
T1 construct: N-Terminally His6-tagged human AspH315–758 (His6-AspH315–758) was produced in E. coli BL21 (DE3) cells; made in house; host or cells: E. coli BL21 (DE3), pET-28a(+) vector
T1 sequence (Q12797 315-758): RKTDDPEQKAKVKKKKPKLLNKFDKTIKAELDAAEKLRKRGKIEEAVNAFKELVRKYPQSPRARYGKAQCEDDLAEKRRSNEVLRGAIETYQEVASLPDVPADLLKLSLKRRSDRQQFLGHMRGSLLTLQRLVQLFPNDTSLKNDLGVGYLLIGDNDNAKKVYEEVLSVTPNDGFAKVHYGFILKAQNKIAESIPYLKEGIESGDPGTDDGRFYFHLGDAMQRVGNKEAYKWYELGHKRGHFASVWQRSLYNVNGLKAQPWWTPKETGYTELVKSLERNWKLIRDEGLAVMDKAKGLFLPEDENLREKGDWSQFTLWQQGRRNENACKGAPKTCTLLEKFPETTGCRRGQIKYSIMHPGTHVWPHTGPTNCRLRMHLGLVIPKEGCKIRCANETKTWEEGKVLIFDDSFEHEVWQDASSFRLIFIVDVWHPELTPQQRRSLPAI
Assay: SPE-MS AspH inhibition assay (LOPAC screen at fixed 20 μM and IC50 dose-response), hydroxylation of cyclic peptide hFX-CP101–119
Format: biochemical
Conditions: LOPAC compound at 20uM, plate 2; conversion of substrate peptide

| SMILES | Plate 2 (% conversion) |
| --- | --- |
| COc1ccc2[n-]c([S@@+]([O-])Cc3ncc(C)c(OC)c3C)nc2c1.COc1ccc2[n-]c([S@@+]([O-])Cc3ncc(C)c(OC)c3C)nc2c1.O.O.[Mg+2] [Esomeprazole magnesium dihydrate] | 41.52% |
| CCOC(=O)c1cnc2c(cnn2CC)c1NN=C(C)C [Etazolate hydrochloride] | 58.51% |
| CCC1(C)CC(=O)NC1=O (stereo not shown) [Ethosuximide] | 37.85% |
| CCc1cccc2c3c([nH]c12)C(CC)(CC(=O)O)OCC3 (stereo not shown) [Etodolac] | 36.91% |
| COC(=O)c1c(C)[nH]c(C)c1C(=O)c1ccccc1Cc1ccccc1 [FPL 64176] | 38.85% |
| NC(=O)OCC(COC(N)=O)c1ccccc1 [Felbamate] | 34.68% |
| COc1cccc2c1[C@@H]1CN(CCCCn3c(=O)[nH]c4c(sc5ncc(-c6ccccc6)nc54)c3=O)C[C@@H]1CO2 [Fiduxosin hydrochloride] | 64.73% |
| Fc1ccc(C(c2ccc(F)cc2)N2CCN(C/C=C/c3ccccc3)CC2)cc1 [Flunarizine dihydrochloride] | 46.32% |
| CNCCC(Oc1ccc(C(F)(F)F)cc1)c1ccccc1 (stereo not shown) [Fluoxetine hydrochloride] | 43.85% |
| CCOC(=O)Nc1ccc(NCc2ccc(F)cc2)nc1N [Flupirtine maleate] | 33.85% |
| O=C1NCN(c2ccccc2)C12CCN(CCCC(c1ccc(F)cc1)c1ccc(F)cc1)CC2 [Fluspirilene] | 58.99% |
| CC(C)C(=O)Nc1ccc([N+](=O)[O-])c(C(F)(F)F)c1 [Flutamide] | 40.61% |
| Cc1nc2c([nH]1)c(=O)n(C)c(=O)n2Cc1ccco1 [Furafylline] | 36.33% |
| O=C([O-])c1cc2cc(Cc3cccnc3)ccc2o1.[Na+] [Furegrelate sodium] | 36.88% |

Same assay, conditions: LOPAC compound at 20uM, plate 2; normalised to DMSO and 2,4-PDCA controls

| SMILES | Plate 2 (% inhibition) |
| --- | --- |
| COc1ccc2[n-]c([S@@+]([O-])Cc3ncc(C)c(OC)c3C)nc2c1.COc1ccc2[n-]c([S@@+]([O-])Cc3ncc(C)c(OC)c3C)nc2c1.O.O.[Mg+2] [Esomeprazole magnesium dihydrate] | -16.62% |
| COC(=O)c1c(C)[nH]c(C)c1C(=O)c1ccccc1Cc1ccccc1 [FPL 64176] | -8.64% |
| O=C([O-])c1cc2cc(Cc3cccnc3)ccc2o1.[Na+] [Furegrelate sodium] | -2.76% |

Same assay, conditions: LOPAC compound at 20uM, plate 2; normalised to DMSO and 2,4-PDCA controls; read-out: Plate 2 (% inhibition)

| SMILES | inhibition at 20 µM |
| --- | --- |
| CN(CCOc1ccc(NS(C)(=O)=O)cc1)CCc1ccc(NS(C)(=O)=O)cc1 [Dofetilide] | -3.76% |
| CCOC(=O)c1cnc2c(cnn2CC)c1NN=C(C)C [Etazolate hydrochloride] | -67.4% |
| CCC1(C)CC(=O)NC1=O (stereo not shown) [Ethosuximide] | -5.65% |
| CCc1cccc2c3c([nH]c12)C(CC)(CC(=O)O)OCC3 (stereo not shown) [Etodolac] | -2.84% |
| NC(=O)OCC(COC(N)=O)c1ccccc1 [Felbamate] | 3.82% |
| COc1cccc2c1[C@@H]1CN(CCCCn3c(=O)[nH]c4c(sc5ncc(-c6ccccc6)nc54)c3=O)C[C@@H]1CO2 [Fiduxosin hydrochloride] | -85.9% |
| Fc1ccc(C(c2ccc(F)cc2)N2CCN(C/C=C/c3ccccc3)CC2)cc1 [Flunarizine dihydrochloride] | -31% |
| CNCCC(Oc1ccc(C(F)(F)F)cc1)c1ccccc1 (stereo not shown) [Fluoxetine hydrochloride] | -23.6% |
| CCOC(=O)Nc1ccc(NCc2ccc(F)cc2)nc1N [Flupirtine maleate] | 6.29% |
| O=C1NCN(c2ccccc2)C12CCN(CCCC(c1ccc(F)cc1)c1ccc(F)cc1)CC2 [Fluspirilene] | -68.8% |
| CC(C)C(=O)Nc1ccc([N+](=O)[O-])c(C(F)(F)F)c1 [Flutamide] | -13.9% |
| Cc1nc2c([nH]1)c(=O)n(C)c(=O)n2Cc1ccco1 [Furafylline] | -1.12% |
| NS(=O)(=O)c1cc(C(=O)O)c(NCc2ccco2)cc1Cl [Furosemide] | 2.67% |

Same assay, conditions: LOPAC compound at 20uM, plate 3; conversion of substrate peptide

| SMILES | Plate 3 (% conversion) |
| --- | --- |
| CCCCc1ncc(/C=C(\Cc2cccs2)C(=O)O)n1Cc1ccc(C(=O)O)cc1 [Eprosartan mesylate] | 33.79% |
| CN1CC(=O)NC1=NC(=O)Nc1cccc(Cl)c1 [Fenobam] | 36.37% |
| O=CN(O)CCCP(=O)([O-])O.[Na+] [Fosmidomycin sodium salt hydrate] | 34.84% |

Same assay, conditions: LOPAC compound at fixed 20 uM; plate 1, normalised to DMSO and 2,4-PDCA controls

| SMILES | Plate 1 (% inhibition) |
| --- | --- |
| Cc1cc(Cl)ccc1OCCCC(=O)NO [Droxinostat] | 1.86% |
| C[C@]12CC[C@@H]3c4ccc(O)cc4C[C@@H](CCCCCCCCC[S+]([O-])CCCC(F)(F)C(F)(F)F)[C@H]3[C@@H]1CC[C@@H]2O (stereo partly shown) [Fulvestrant] | 12.89% |

Same assay, conditions: LOPAC compound at fixed 20 uM; substrate conversion, plate 1

| SMILES | Plate 1 (% conversion) |
| --- | --- |
| Cc1cc(Cl)ccc1OCCCC(=O)NO [Droxinostat] | 35.25% |
| C[C@]12CC[C@@H]3c4ccc(O)cc4C[C@@H](CCCCCCCCC[S+]([O-])CCCC(F)(F)C(F)(F)F)[C@H]3[C@@H]1CC[C@@H]2O (stereo partly shown) [Fulvestrant] | 31.54% |

Same assay, conditions: plate 5 (Pfitzer), test compounds at fixed 20 μM

| SMILES | Plate 5 (% inhibition) |
| --- | --- |
| CN(CCOc1ccc(NS(C)(=O)=O)cc1)CCc1ccc(NS(C)(=O)=O)cc1 [Dofetilide] | -1.04% |
| C=Cc1cc(O)cc2nc(-c3ccc(O)c(F)c3)oc12 [ERB-041] | 30.36% |
| CN1CCC[C@@H]1Cc1c[nH]c2ccc(CCS(=O)(=O)c3ccccc3)cc12 [Eletriptan] | 0.46% |

Same assay, conditions: plate 5 (Pfitzer), test compounds at fixed 20 μM; mean conversion DMSO 32.88

| SMILES | Plate 5 (% conversion) |
| --- | --- |
| CN(CCOc1ccc(NS(C)(=O)=O)cc1)CCc1ccc(NS(C)(=O)=O)cc1 [Dofetilide] | 36.67% |
| C=Cc1cc(O)cc2nc(-c3ccc(O)c(F)c3)oc12 [ERB-041] | 25.98% |
| CN1CCC[C@@H]1Cc1c[nH]c2ccc(CCS(=O)(=O)c3ccccc3)cc12 [Eletriptan] | 36.16% |
